Earlier results as cited in patent publication US20230165822A1, “URINARY ALKALIZING MEDICINAL AND/OR PHARMACEUTICAL COMPOSITION FOR THE ORAL TREATMENT OF INTERSTITIAL CYSTITIS / BLADDER PAIN SYNDROME (IC/BPS) AND FORMULATION THEREOF” (priority 2020, published 2023).

Details: in vivo

Compound: CC(=O)/N=c1/sc(S(N)(=O)=O)nn1C [Methazolamide]
- share reaching the bladder: only a fraction
